# Columns and labels:
# [1] = tested on: human pancreatic cancer (PANC1) cells; assay: MTT cell viability assay, PANC1; type: cell-based; details: 24 hours
# Protocol: Cell lines and culture conditions: A human pancreatic cancer cell line PANC1 and human colon cancer cell line HCT116 were obtained from National Centre for Cell Science (NCCS), Pune, India. The PANC1 cells were sub-cultured in Dulbecco's Modified Eagle's Medium (DMEM) supplemented with 10% FBS at 5% C02 and 37° C. The HCT116 cells were sub-cultured in McCoy's 5A media supplemented with 10% FBS at 5% CO2 and 37° C. […] The cells were allowed to attach 70% to the surface prior to treatment. […] Suspensions were aspirated 10 times before treatment. Cells treated with vehicle control were used as a control. Cell viability assay: PANC1 and HCT116 cells ([…] cells/ml) were seeded in 96-well plates and exposed to different individual-drug treated groups with varying concentrations (0, 20, 40, 60, 80, 100, 120, 140, 160, 180 and 200 μM) for a period of 24 hours. The individual-treated groups include Group I: 5 Fluorouracil (5FU)-treated PANC1 and HCT116 cells; Group II: MET-treated PANC1 and HCT116 cells; Group III: EGCG-treated PANC1 and HCT116 cells and Group IV: 5FU+[…] PANC1 and HCT116 cells.
# [2] = LC/MS of drugs and active metabolites in plasma and brain (blood brain barrier); type: in vivo, rat; details: for Detected mass in LC-MS Brain / Detected mass in LC-MS Plasma: NA = not detected
# Protocol: T, M & E (Sigma Aldrich, St. Louis, USA) were dissolved in sterile water and administered intra peritoneally for 7 days (from day 21 to day 27; where the day of tumor induction is considered day 0) to a rat with the dose specified in Table-4 (TME: 50+80+150 mg/kg body weight). After 7 days of treatment (on day 28), blood (plasma) was collected and the rat was euthanized, immediately the brain tissue was collected and stored at −80° C. The brain tissue was then processed accordingly to measure active metabolites through LC/MS.
# To 100 μl of plasma or brain (0.5 g crushed in 0.5 mL of sterile water), 20 μl of the working internal standard solution was added. The samples were deproteinised with acetonitrile and the supernatant (100 μl) was injected into the chromatographic system. For the brain, as described above, ciprofloxacin solution (20 μl) was added to 100 μl of crushed brain. Then, repeating the plasma sample process, 20 μl of the solution was injected into the chromatographic system.
# [3] = tested on: human breast cancer (MDA-MB-453) cells; assay: MTT cell viability assay, MDA-MB-453; type: cell-based; details: 24 hours
# Protocol: Cell lines and culture conditions: A human breast cancer cell line MDA-MB-453 and human bone cancer cell line SaoS2 were obtained from National Centre for Cell Science (NCCS), Pune, India. The MDA-MB-453 cells were sub-cultured in Dulbecco's Modified Eagle's Medium (DMEM) supplemented with 10% FBS at 5% CO2 and 37° C. The SaoS2 cells were sub-cultured in McCoy's 5A media supplemented with 10% FBS at 5% CO2 and 37° C. […] The cells were allowed to attach 70% to the surface prior to treatment. […] Suspensions were aspirated 10 times before treatment. Cells treated with vehicle control were used as a control. Cell viability assay: MDA-MB-453 and SaoS2 cells (5×10^3 cells/ml) were seeded in 96-well plates and exposed to different individual-drug treated groups with varying concentrations (0, 20, 40, 60, 80, 100, 120, 140, 160, 180 and 200 μM) for a period of 24 hours.
# [4] = tested on: human hepatocellular carcinoma (HepG2) cells; assay: MTT cell viability assay, HepG2; type: cell-based; details: 24 hours
# Protocol: Cell lines and culture conditions. A human hepatocellular carcinoma (HepG2) and ovarian cancer (SKOV3) cells were obtained from National Centre for Cell Science (NCCS), Pune, India. The cells HepG2 and SKOV3 were sub-cultured in Eagle's Minimum Essential Medium (EMEM) and McCoy's 5a supplemented with 10% FBS at 5% CO2 and 37° C. […] The cells were allowed to attach 70% to the surface prior to treatment. A stock solution of all the drugs (10 mg/ml) was made in distilled H2O and diluted to the required concentrations. Suspensions were aspirated 10 times before treatment. Cells treated with vehicle control were used as a control.
# C6 rat glioma cell line = assay: MTT cell viability assay, C6; type: cell-based
# Protocol: (§1) Cell lines and culture conditions. A human glioma cell line, U87MG, a rat glioma cell line, C6, and normal HEK293T (Human Embryonic Kidney) cells were obtained from National Centre for Cell Science (NCCS), Pune, India. The cells were sub-cultured in Dulbecco's Modified Eagle's Medium (DMEM) supplemented with 10% FBS at 5% CO2 and 37° C. At 85% confluence, the cells were harvested using 0.25% trypsin and seeded in 25 cm^2 flasks, 96 well, and 6-well plates, according to the experiment being performed. The cells were allowed to attach 70% to the surface prior to treatment. A stock solution of all the drugs (10 mg/ml) was made in a vehicle and diluted to the required concentrations. Suspensions were aspirated 10 times before treatment. Cells treated with vehicle control were used as a control.
# (§2) Cell viability assay. U87MG and C6 cells (5×10^3 cells/ml) were seeded in 96-well plates and exposed to different individual-drug treated groups with varying concentrations (0, 10, 40, 80, 120, and 160 μM) for a period of 24 hours, whereas HEK293T cells (5×10^3 cells/ml) were seeded at the inhibitory concentration (IC) at 50% of drugs, either alone or in combination. The individual-treated groups include Group I: untreated control glioma cells; Group II: TMZ-treated glioma cells; Group III: MET-treated glioma cells; and Group IV: EGCG-treated glioma cells.
# (§3) After a 24 hour treatment period, the cells were allowed to react with MTT for 4 hours in dark at 37° C. At the end of the incubation period, the dark purple formazan crystals formed were solubilized with DMSO and the absorbance was measured spectrophotometrically at 595 nm (Molecular Devices Spectra-Max M5, USA). The experiments were repeated at least three times. To determine the cell viability, the percentage of viability was calculated as follows:
# (§4) % viability=[(Optical density {OD} of treated cells−OD of Blank)/(OD of control−OD of blank)]×100.
# (§5) Calculation of IC50 value. The IC50 of a drug was determined using y=m(x)+c equation (where: ‘y’ & ‘x’ are the respective coordinates of y & x-axis, ‘m’ is the slope and ‘c’ is the constant) derived from the trendlines of each scattered plots MMT assay. […] The IC50 and IC25 were also calculated for the dual combinations. The IC50 for the triple combination was calculated by keeping the IC25 of the dual-combination constant, and the third drug was used in varying concentrations (0, 10, 40, 80, 120, and 160 μM) (Table 1).
# (§6) Combination index of drugs. According to the Chou-Talalay method, The statistical Combination Index (CI) of the drugs was performed according to the Chou-Talay method (Ma et al, Stem Cell Reports, 2017 9(6):1948-1960) to determine whether various drug combinations were synergistic, additive, or antagonistic, as shown in Table 1. This was performed for Groups V-IX using the following formula:
# (§7) Combination index (CI) of Drugs 1 & 2=(IC50 of drug-1 in combination/IC50 of drug-1 individually)+(IC50 of drug-2 in combination/IC50 of drug-2 individually).
# Ki67 = assay: Immunohistochemistry of tumor sections, Ki67; type: in vivo, rat; details: i.p. 7 days; tumor-control 36.73%
# VEGF = assay: Immunohistochemistry of tumor sections, VEGF; type: in vivo, rat; details: i.p. 7 days; tumor-control 73.58%
# Protocol: Immunohistochemistry. For immunohistochemistry (IHC) analysis, 4 μm thick tissue sections were deparaffinized in xylene and hydrated by immersing in a series of graded ethanol concentration (100%, 95%, 75% and 50%). Endogenous peroxidase activity was blocked by incubating sections in 3% H2O2 solution prepared in methanol at room temperature for 10 minutes and were washed with PBS twice for 5 minutes each. Antigen retrieval was performed by immersing the slides in 300 ml of retrieval buffer (10 mM citrate buffer, pH 6.0) for one hour at 100° C. and were rinsed twice in PBS. Sections were then incubated with approximately 100 μl diluted primary antibodies of Ki67 (1:100 dilution, Elabscience, Wuhan, China) and Vascular Endothelial Growth Factor (VEGF) (1:100 dilution, Elabscience, Wuhan, China) for 30 minutes at room temperature. The slides were then washed twice with PBS and were then incubated with approximately 100 μl of diluted secondary antibody (Cat No. E-IR-R213, Elabscience, Wuhan, China) at room temperature for 30 minutes. Slides were then washed in PBS for 5 minutes, followed by incubation with approximately 100 μl diluted Horse Radish Peroxidase (HRP) conjugate for 30 minutes. […] The staining intensities were quantified using IHC Profiler, a plugin in ImageJ software, to determine the H-score (Histo score).
# [5] = tested on: U87MG human glioma cell line; assay: MTT cell viability assay, U87MG; type: cell-based
# Protocol: as §1, §2, §3, §4, §5, §6, §7
# [6] = tested on: HEK293T (Human Embryonic Kidney) cells; assay: Trypan blue exclusion cytotoxicity on normal cell line; type: cell-based; details: treated at IC50 values determined in U87MG and C6, 24 hours
# Protocol: Cytotoxicity on a normal cell line.
# Furthermore, to check for the cytotoxicity of the drugs, a trypan blue dye exclusion assay was performed on a normal cell line, HEK293T, using the IC50 values of each drug, individually and in combination, as determined in U87MG and C6 cells and shown in Table 2.
# [7] = individually treated T, M and E, i.p. 7 days
# [8] = triple combination TME 50+80+150 mg/kg i.p. 7 days
# [9] = as used in the triple combination for CI
smiles,measurement,setting,value
"O=c1[nH]cc(F)c(=O)[nH]1 [5FU, 5-Fluorouracil]","cell viability (MTT), in words",[1],reduction in cell viability in a dose-dependent fashion
"NC(=O)c1[nH]cnc1N [AIC, 5-amino-imidazole-4-carboxamide]",Detected mass in LC-MS Brain,[2]; [7],123.09
same,Detected mass in LC-MS Plasma,[2]; [7],127.02
same,Detected mass in LC-MS Brain,[2]; [8],123.05
same,Detected mass in LC-MS Plasma,[2]; [8],127.02
"COc1cccc2c1C(=O)c1c(O)c3c(c(O)c1C2=O)C[C@@](O)(C(=O)CO)C[C@@H]3O[C@H]1C[C@H](N)[C@H](O)[C@H](C)O1 [DOX, Doxorubicin]","cell viability (MTT), in words",[3],reduction in cell viability in a dose-dependent fashion
"CNC(=O)c1cc(Oc2ccc(NC(=O)Nc3ccc(Cl)c(C(F)(F)F)c3)cc2)ccn1 [SOR, Sorafenib]","cell viability (MTT), in words",[4],reduction in cell viability in a dose-dependent fashion
"Cn1nnc2c(C(N)=O)ncn2c1=O [TMZ, 3-methyl-3-oxoimidazo[5,1-d] [1,2,3,5] tetrazine-8-carboxamide]",IC50,"C6 rat glioma cell line; Rattus norvegicus, C6, individual drug, 24 hours, mean ± SD, no unit in table, test concentrations given in μM, read-out: Inhibitory Concentration at 50% (IC50) C6 Cells",72 ± 1.32 µM
same,IC25 C6,C6 rat glioma cell line; [9],31.76 µM
same,Ki67 nuclear positivity rate,Ki67,13.14%
same,cytoplasmic positivity for VEGF (H-score),VEGF,25.83%
same,"transport across the blood brain barrier, in words",[2]; administered individually and in combination,crossed BBB in the form of their active metabolites
same,Detected mass in LC-MS Plasma,[2]; [8],198.93
same,IC50,"[5]; Homo sapiens, U-87 MG, individual drug, 24 hours, mean ± SD, no unit in table, test concentrations given in μM, read-out: Inhibitory Concentration at 50% (IC50) U87MG Cells",77 ± 1.14 µM
same,IC25 U87MG,[5]; [9],18.94 µM
same,toxicity in normal HEK293T cells,[6],higher toxicity

# Source: patent US20250275938A1, “COMPOSITIONS AND METHODS FOR TREATMENT OF CANCER” (SCIROSBIO (FZC), priority 2022, published 2025)
